The compounds below were run on Saccharomyces cerevisiae BY4742 (assay: Anti-yeast activity assay (minimum inhibitory concentration)). Conditions: YPD media, 30° C., 16 hours, lowest concentration with no obvious culture growth, triplicate, read-out: MIC against Saccharomyces cerevisiae BY4742.
Format: cell-based
Procedure: A single colony of Saccharomyces cerevisiae BY4742 was inoculated into 2 mL YPD media in a 5 mL falcon tube to grow overnight at 30° C. The overnight culture was inoculated into 5 mL YPD media in a glass tube at OD600=0.1, and the new culture was grown at 30° C. until OD600 reached 0.5. The culture was then diluted to OD600=0.01 and aliquoted into 96-well plates at 100 μL per well. The compound was dissolved in ethanol at 75 μM. Three-fold serial dilutions were conducted for the Compound 10 times using ethanol, respectively. 4 μL of each concentration compound solution was added and mixed with 384 μL YPD media. 100 μL of the YPD media solutions were mixed with the Saccharomyces cerevisiae cultures in 96-well plates by pipette, respectively. The plates were incubated at 30° C. for 16 hours without shaking. The lowest Compound concentrations in wells that have no obvious culture growth were defined as the minimum inhibitory concentrations (MICs). The assays were conducted in triplicate.

MIC, < 0.0556 µM:
CO[C@H]1C[C@@H]2CC[C@@H](C)[C@@](O)(O2)C(=O)C(=O)N2CCCC[C@H]2C(=O)O[C@H]([C@H](C)C[C@@H]2CC[C@@H](O)[C@H](OC)C2)CC(=O)C/C=C(\C)[C@@H](O)[C@@H](OC)C(=O)[C@H](C)C[C@H](C)/C=C/C=C/C=C/1C [Compound 10, (3S,7E,9R,10R,12R,14S,15E,17E,19E,21S,23S,26R,27R,34aS)-9,27-dihydroxy-3-((R)-1-((1S,3R,4R)-4-hydroxy-3-methoxycyclohexyl)propan-2-yl)-10,21-dimethoxy-8,12,14,20,26-pentamethyl-9,10,12,13,14,21,22,23,24,25,26,27,32,33,34,34a-hexadecahydro-3H-23,27-epoxypyrido[2,1-c][1]oxa[4]azacyclohentriacontine-1,5,11,28,29(4H,6H,31H)-pentaone]
CO[C@H]1C[C@@H]2CCC[C@@](O)(O2)C(=O)C(=O)N2CCCC[C@H]2C(=O)O[C@H]([C@H](C)C[C@@H]2CC[C@@H](O)[C@H](OC)C2)CC(=O)[C@H](C)/C=C(\C)[C@@H](O)[C@@H](OC)C(=O)[C@H](C)C[C@H](C)/C=C/C=C/C=C/1C [Compound 12, (3S,6R,7E,9R,10R,12R,14S,15E,17E,19E,21S,23S,27R,34aS)-9,27-dihydroxy-3-((R)-1-((1S,3R,4R)-4-hydroxy-3-methoxycyclohexyl)propan-2-yl)-10,21-dimethoxy-6,8,12,14,20-pentamethyl-9,10,12,13,14,21,22,23,24,25,26,27,32,33,34,34a-hexadecahydro-3H-23,27-epoxypyrido[2,1-c][1]oxa[4]azacyclohentriacontine-1,5,11,28,29(4H,6H,31H)-pentaone]
CO[C@@H]1/C(C)=C/C=C/C=C/[C@@H](C)C[C@@H](C)C(=O)[C@H](OC)[C@H](O)/C(C)=C/[C@@H](C)C(=O)C[C@@H]([C@H](C)C[C@@H]2CC[C@@H](O)[C@H](OC)C2)OC(=O)[C@@H]2CCCCN2C(=O)C(=O)[C@]2(O)O[C@@H](CC[C@H]2C)[C@@H]1C [Compound 15, (3S,6R,7E,9R,10R,12R,14S,15E,17E,19E,21S,22S,23S,26R,27R,34aS)-9,27-dihydroxy-3-((R)-1-((1S,3R,4R)-4-hydroxy-3-methoxycyclohexyl)propan-2-yl)-10,21-dimethoxy-6,8,12,14,20,22,26-heptamethyl-9,10,12,13,14,21,22,23,24,25,26,27,32,33,34,34a-hexadecahydro-3H-23,27-epoxypyrido[2,1-c][1]oxa[4]azacyclohentriacontine-1,5,11,28,29(4H,6H,31H)-pentaone]
